The source of these data is patent US20090042964A1, “AMINO-5-[SUBSTITUTED-4-(DIFLUOROMETHOXY)PHENYL]-5-PHENYLIMIDAZOLONE COMPOUNDS AS BETA-SECRETASE INHIBITORS” (Wyeth, priority 2007, published 2009).

Like-named read-outs stand apart in the source and are kept apart here. Where only a bound is given, the exact number is not on record here.

The target in this experiment is human BACE1 (Homo sapiens, UniProt P56817). Description: Fluorescent kinetic assay, evaluation of BACE1 binding affinity of test compounds. Format: biochemical. The note with it: 10 nM human BACE1, 25 μM substrate WABC-6, pH 4.5, room temperature. As for the experimental part: Concentration is determined by absorbance at 354 nm using an extinction coefficient of 18172 M^-1 cm^-1, the concentration of stock substrate is corrected, and the substrate stock stored in small aliquots in -80° C. […] Determination of Stock Enzyme Concentration: the stock concentration of each enzyme is determined by absorbance at 280 nm using an of 64150 M^-1 cm^-1 for hBACE1 and MuBACE1, 62870 M^-1 cm^-1 for hBACE2 in 6 M Guanidinium Hydrochloride (from Research Organics, Cat. # 5134G-2), pH 6. […] Biochem. 182, 319-326). Dilution and mixing steps: total reaction volume: 100 μL 2× inhibitor dilutions in buffer A (66.7 mM Na-Acetate, pH 4.5, 0.0667% CHAPS) were prepared, 4× enzyme dilution in buffer A (66.7 mM Na-Acetate, pH 4.5, 0.0667% CHAPS) were prepared, 100 μM substrate dilution in 1×PBS was prepared, and 50 μL 2× Inhibitor, 25 μL 100 μM substrate are added to each well of 96-well plate (from DYNEX Technologies, VWR #: 11311-046), immediately followed by 25 μL 4× enzyme (added to the inhibitor and substrate mix), and the fluorescence readings are initiated.
Chain of human BACE1 (P56817 46-501): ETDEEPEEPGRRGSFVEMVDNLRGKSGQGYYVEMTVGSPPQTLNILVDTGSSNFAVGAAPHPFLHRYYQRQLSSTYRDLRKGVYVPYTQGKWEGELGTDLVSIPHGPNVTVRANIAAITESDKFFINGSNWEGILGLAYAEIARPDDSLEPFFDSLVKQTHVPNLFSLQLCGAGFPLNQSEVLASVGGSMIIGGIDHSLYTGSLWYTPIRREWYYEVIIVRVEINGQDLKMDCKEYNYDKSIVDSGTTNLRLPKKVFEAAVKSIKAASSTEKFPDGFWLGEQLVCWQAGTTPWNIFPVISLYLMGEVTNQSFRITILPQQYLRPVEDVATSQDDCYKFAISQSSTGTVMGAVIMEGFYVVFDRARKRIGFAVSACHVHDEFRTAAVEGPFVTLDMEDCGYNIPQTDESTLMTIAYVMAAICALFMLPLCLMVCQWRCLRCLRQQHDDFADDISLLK

As to `CN1C(=O)C(c2ccccc2)(c2ccc(OC(F)F)c(C3CC3)c2)N=C1N` (centres unmarked) [Example 10, 2-Amino-5-[3-cyclopropyl-4-(difluoromethoxy)phenyl]-3-methyl-5-phenyl-3,5-dihydro-4H-imidazol-4-one], the IC50 (in general, the point on the concentration scale where inhibition reaches its midpoint) (BACE1 IC50 μM) is less than 0.1 µM.

On to `C=Cc1cc(C2(c3ccccc3)N=C(N)N(C)C2=O)ccc1OC(F)F` (centres unmarked) [Example 11, 2-Amino-5-[4-(difluoromethoxy)-3-vinylphenyl)-3-methyl-5-phenyl-3,5-dihydro-4H-imidazol-4-one], for which the IC50 (BACE1 IC50 μM) is 0.11 to 1 µM.

For the molecule `CN1C(=O)C(c2ccccc2)(c2ccc(OC(F)F)c(C(F)(F)F)c2)N=C1N` (centres unmarked) [Example 12, 2-Amino-5-[4-(difluoromethoxy)-3-(trifluoromethyl)phenyl]-3-methyl-5-phenyl-3,5-dihydro-4H-imidazol-4-one], for the setting “BACE1 IC50 μM”, the IC50 lay within 0.11 to 1 µM.

For `CN1C(=O)C(c2ccccc2)(c2ccc(OC(F)F)c(CF)c2)N=C1N` (centres unmarked) [Example 13, 2-Amino-5-[4-(difluoromethoxy)-3-(fluoromethyl)phenyl]-3-methyl-5-phenyl-3,5-dihydro-4H-imidazol-4-one], the IC50 (BACE1 IC50 μM) was in the range of 0.11 to 1 µM.

`COc1cc(C2(c3ccccc3)N=C(N)N(C)C2=O)ccc1OC(F)F` (centres unmarked) [Example 15, 2-Amino-5-[4-(difluoromethoxy)-3-methoxyphenyl]-3-methyl-5-phenyl-3,5-dihydro-4H-imidazol-4-one]: the half-inhibitory concentration (IC50) (BACE1 IC50 μM) was 0.11 to 1 µM.

On to `CN1C(=O)C(c2ccccc2)(c2ccc(OC(F)F)c(F)c2)N=C1N` (centres unmarked) [Example 17, 2-Amino-5-[4-(difluoromethoxy)-3-fluorophenyl]-3-methyl-5-phenyl-3,5-dihydro-4H-imidazol-4-one], for which, for the setting “BACE1 IC50 μM”, the IC50 lay in the range of 0.11 to 1 µM.

The molecule `Cc1cc(C2(c3ccc(OC(F)F)c(C)c3)N=C(N)N(C)C2=O)ccc1F` (centres unmarked) [Example 20, 2-Amino-5-[4-(difluoromethoxy)-3-methylphenyl]-5-(4-fluoro-3-methylphenyl)-3-methyl-3,5-dihydro-4H-imidazol-4-one] gave an IC50 (BACE1 IC50 μM) of 0.11 to 1 µM.

`COc1ccc(C2(c3ccc(OC(F)F)c(C)c3)N=C(N)N(C)C2=O)cc1C#N` (centres unmarked) [Example 21, 5-{2-Amino-4-[4-(difluoromethoxy)-3-methylphenyl]-1-methyl-5-oxo-4,5-dihydro-1H-imidazol-4-yl}-2-methoxybenzonitrile]: the IC50 (BACE1 IC50 μM) was in the range of 0.11 to 1 µM.

`Cc1cc(C2(c3ccc(F)c(CF)c3)N=C(N)N(C)C2=O)ccc1OC(F)F` (centres unmarked) [Example 22, 2-Amino-5-[4-(difluoromethoxy)-3-methylphenyl]-5-[4-fluoro-3-(fluoromethyl)phenyl]-3-methyl-3,5-dihydro-4H-imidazol-4-one]: the 50% inhibitory concentration (IC50) (BACE1 IC50 μM) was 0.11 to 1 µM.

Molecule `CCc1cc([C@]2(c3ccccc3)N=C(N)N(C)C2=O)ccc1OC(F)F` [Example 23, (5S)-2-Amino-4-[4-(difluoromethoxy)-3-ethylphenyl]-1-methyl-4-phenyl-1H-imidazol-5(4H)-one] registered an IC50 (BACE1 IC50 μM) of less than 0.1 µM.

For `CCc1cc([C@@]2(c3ccccc3)N=C(N)N(C)C2=O)ccc1OC(F)F` [Example 24, (5R)-2-Amino-4-[4-(difluoromethoxy)-3-ethylphenyl]-1-methyl-4-phenyl-1H-imidazol-5(4H)-one], the IC50 (BACE1 IC50 μM) is greater than 1 µM.

As to `CN1C(=O)[C@](c2ccccc2)(c2ccc(OC(F)F)c(Cl)c2)N=C1N` [Example 27, (5S)-2-Amino-5-[3-chloro-4-(difluoromethoxy)phenyl]-1-methyl-5-phenyl-3,5-dihydro-4H-imidazol-4-one], the IC50 (BACE1 IC50 μM) is 0.11 to 1 µM.

Under “BACE1 IC50 μM”, `CN1C(=O)[C@@](c2ccccc2)(c2ccc(OC(F)F)c(Cl)c2)N=C1N` [Example 28, (5R)-2-Amino-5-[3-chloro-4-(difluoromethoxy)phenyl]-1-methyl-5-phenyl-3,5-dihydro-4H-imidazol-4-one] gave an IC50 greater than 1 µM.

The molecule `Cc1cc(C2(c3ccc(F)c(Br)c3)N=C(N)N(C)C2=O)ccc1OC(F)F` (centres unmarked) [Example 31] returned an IC50 (BACE1 IC50 μM) of 0.11 to 1 µM.

The molecule `Cc1cc(C2(c3ccc(F)c(Br)c3)N=C(N)N(C)C2=O)ccc1OC(F)F` (centres unmarked) [Example 32] displayed an IC50 (BACE1 IC50 μM) of less than 0.1 µM.

In the case of `C=Cc1cc([C@@]2(c3ccccc3)N=C(N)N(C)C2=O)ccc1OC(F)F` [Example 33, (5R)-2-Amino-5-[4-(difluoromethoxy)-3-vinylphenyl]-3-methyl-5-phenyl-3,5-dihydro-4H-imidazol-4-one], the half-inhibitory concentration (IC50) (BACE1 IC50 μM) was less than 0.1 µM.

For the setting “BACE1 IC50 μM”, `C=Cc1cc([C@]2(c3ccccc3)N=C(N)N(C)C2=O)ccc1OC(F)F` [Example 34, (5S)-2-Amino-5-[4-(difluoromethoxy)-3-vinylphenyl]-3-methyl-5-phenyl-3,5-dihydro-4H-imidazol-4-one] gave an IC50 greater than 1 µM.

Turning to `CCCCOc1cccc(C2(c3ccc(OC(F)F)c(Cl)c3)N=C(N)N(C)C2=O)c1` (centres unmarked) [Example 35, 2-Amino-5-(3-butoxyphenyl)-5-[3-chloro-4-(difluoromethoxy)-phenyl]-3-methyl-3,5-dihydro-4H-imidazol-4-one], the IC50 (read-out: BACE1 IC50) is less than 0.1 µM.

In the case of `CCOc1cccc(C2(c3ccc(OC(F)F)c(Cl)c3)N=C(N)N(C)C2=O)c1` (centres unmarked) [Example 36, 2-Amino-5-[3-chloro-4-(difluoromethoxy)phenyl]-5-(3-ethoxyphenyl)-3-methyl-3,5-dihydro-4H-imidazol-4-one], for the setting “read-out: BACE1 IC50”, the IC50 was 0.11 to 1 µM.

Take `CN1C(=O)C(c2cccc(OCCF)c2)(c2ccc(OC(F)F)c(Cl)c2)N=C1N` (centres unmarked) [Example 37, 2-Amino-5-[3-chloro-4-(difluoromethoxy)phenyl]-5-[3-(2-fluoroethoxy)phenyl]-3-methyl-3,5-dihydro-4H-imidazol-4-one]: the 50% inhibitory concentration (IC50) (read-out: BACE1 IC50) was less than 0.1 µM.

As for `CN1C(=O)C(c2cccc(OCC(F)F)c2)(c2ccc(OC(F)F)c(Cl)c2)N=C1N` (centres unmarked) [Example 38, 2-Amino-5-[3-chloro-4-(difluoromethoxy)phenyl]-5-[3-(2,2-difluoroethoxy)phenyl]-3-methyl-3,5-dihydro-4H-imidazol-4-one], under “read-out: BACE1 IC50”, the half-inhibitory concentration (IC50) was less than 0.1 µM.

Regarding `CCCOc1cccc(C2(c3ccc(OC(F)F)c(Cl)c3)N=C(N)N(C)C2=O)c1` (centres unmarked) [Example 39, 2-Amino-5-[3-chloro-4-(difluoromethoxy)phenyl]-3-methyl-5-(3-propoxyphenyl)-3,5-dihydro-4H-imidazol-4-one], the IC50 (read-out: BACE1 IC50) is less than 0.1 µM.

With `CN1C(=O)C(c2cccc(OCCCF)c2)(c2ccc(OC(F)F)c(Cl)c2)N=C1N` (centres unmarked) [Example 40, 2-Amino-5-[3-chloro-4-(difluoromethoxy)phenyl]-5-[3-(3-fluoropropoxy)phenyl]-3-methyl-3,5-dihydro-4H-imidazol-4-one], the IC50 (read-out: BACE1 IC50) is less than 0.1 µM.

`CCOc1cccc(C2(c3ccc(OC(F)F)c(C)c3)N=C(N)N(C)C2=O)c1` (centres unmarked) [Example 41, 2-Amino-5-[4-(difluoromethoxy)-3-methylphenyl]-5-(3-ethoxyphenyl)-3-methyl-3,5-dihydro-4H-imidazol-4-one]: for the setting “read-out: BACE1 IC50”, the IC50 is less than 0.1 µM.

`Cc1cc(C2(c3cccc(OCCF)c3)N=C(N)N(C)C2=O)ccc1OC(F)F` (centres unmarked) [Example 42]: where the note is “read-out: BACE1 IC50”, the half-inhibitory concentration (IC50) is less than 0.1 µM.

Regarding `Cc1cc(C2(c3cccc(OCC(F)F)c3)N=C(N)N(C)C2=O)ccc1OC(F)F` (centres unmarked) [Example 43, 2-Amino-5-[3-(2,2-difluoroethoxy)phenyl]-5-[4-(difluoromethoxy)-3-methylphenyl]-3-methyl-3,5-dihydro-4H-imidazol-4-one], the IC50 (read-out: BACE1 IC50) is less than 0.1 µM.

As to `CCCOc1cccc(C2(c3ccc(OC(F)F)c(C)c3)N=C(N)N(C)C2=O)c1` (centres unmarked) [Example 44, 2-Amino-5-[4-(difluoromethoxy)-3-methylphenyl]-3-methyl-5-(3-propoxyphenyl)-3,5-dihydro-4H-imidazol-4-one], the half-maximal inhibitory concentration (IC50) (read-out: BACE1 IC50) was less than 0.1 µM.

Consider `Cc1cc(C2(c3cccc(OCCCF)c3)N=C(N)N(C)C2=O)ccc1OC(F)F` (centres unmarked) [Example 45, 2-Amino-5-[4-(difluoromethoxy)-3-methylphenyl]-5-[3-(3-fluoropropoxy)phenyl]-3-methyl-3,5-dihydro-4H-imidazol-4-one], for which, where the note is “read-out: BACE1 IC50”, the IC50 was less than 0.1 µM.

Consider `Cc1cc(C2(c3ccc(F)c(C#CC(C)C)c3)N=C(N)N(C)C2=O)ccc1OC(F)F` (centres unmarked) [Example 48, 2-Amino-5-[4-(difluoromethoxy)-3-methylphenyl]-5-[4-fluoro-3-(3-methylbut-1-yn-1-yl)phenyl]-3-methyl-3,5-dihydro-4H-imidazol-4-one], for which the half-inhibitory concentration (IC50) (read-out: BACE1 IC50) was less than 0.1 µM.

Take `COC/C=C/c1cc(C2(c3ccc(OC(F)F)c(C)c3)N=C(N)N(C)C2=O)ccc1F` (centres unmarked) [Example 57, 2-Amino-5-(4-difluoromethoxy-3-methylphenyl)-5-[4-fluoro-3-((E)-3-methoxypropenyl)phenyl]-3-methyl-3,5-dihydro-imidazol-4-one]: the 50% inhibitory concentration (IC50) (read-out: BACE1 IC50) was less than 0.1 µM.

With `Cc1cc(C2(c3ccc(F)c(/C=C/CCF)c3)N=C(N)N(C)C2=O)ccc1OC(F)F` (centres unmarked) [Example 58, 2-Amino-5-[4-(difluoromethoxy)-3-methylphenyl]-5-[4-fluoro-3-((E)-4-fluorobut-1-enyl)phenyl]-3-methyl-3,5-dihydro-4H-imidazol-4-one], the IC50 (read-out: BACE1 IC50) was less than 0.1 µM.

For `C/C=C/c1cc(C2(c3ccc(OC(F)F)c(C)c3)N=C(N)N(C)C2=O)ccc1F` (centres unmarked) [Example 59, 2-Amino-5-[4-(difluoromethoxy)-3-methylphenyl]-5-[4-fluoro-3-((E)-prop-1-enyl)phenyl]-3-methyl-3,5-dihydro-4H-imidazol-4-one], the IC50 (read-out: BACE1 IC50) is less than 0.1 µM.
